Biological target: WipA (Legionella pneumophila, UniProt Q5ZS02)
Sequence (Q5ZS02 1-520): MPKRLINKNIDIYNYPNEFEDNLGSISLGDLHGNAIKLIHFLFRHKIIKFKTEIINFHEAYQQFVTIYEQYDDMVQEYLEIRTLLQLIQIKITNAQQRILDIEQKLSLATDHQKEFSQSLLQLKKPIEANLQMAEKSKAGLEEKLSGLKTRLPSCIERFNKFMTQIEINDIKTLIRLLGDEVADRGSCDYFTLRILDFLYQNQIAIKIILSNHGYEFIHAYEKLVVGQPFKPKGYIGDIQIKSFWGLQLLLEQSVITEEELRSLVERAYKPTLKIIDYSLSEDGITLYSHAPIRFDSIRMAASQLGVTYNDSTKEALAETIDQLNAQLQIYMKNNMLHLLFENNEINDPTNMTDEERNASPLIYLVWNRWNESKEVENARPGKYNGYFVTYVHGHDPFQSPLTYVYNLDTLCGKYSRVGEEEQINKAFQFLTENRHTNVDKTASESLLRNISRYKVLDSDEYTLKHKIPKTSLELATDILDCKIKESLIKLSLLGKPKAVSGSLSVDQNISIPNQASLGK

## O=[N+]([O-])c1ccc(OP(=O)(O)O)cc1 [pNPP]
  free phosphate by malachite green assay: exhibited robust activity, and a mutation in its active site abolished such activity

Source: paper PMC8740755 (Proceedings of the National Academy of Sciences of the …, 2021)
